Assay results reported in ChEMBL document CHEMBL1136158, “Effect of the acyl groups on O-->N acyl migration in the water-soluble prodrugs of HIV-1 protease inhibitor” (Bioorg Med Chem Lett, 2003).
≈ marks a conversion by molar mass, not a printed value.

Legend:
[1] = Solubility ratio of prodrug versus parent drug; format: physicochemical
[2] = Time required for 50% release of parent drug in phosphate buffered saline (PBS) at 37 degrees Centigrade; format: ADME; details: buffer
[3] = Dissociation constant was determined; format: physicochemical

SMILES	solubility (physchem)	Solubility ratio [1]	T1/2 [2]	pKa [3]
CC(C)(C)NC(=O)[C@H]1N(C(=O)[C@@H](O)[C@H](Cc2ccccc2)NC(=O)OCc2ccccc2)CSC1(C)C	47 µg/mL (≈ 89.1 µM)	–	–	–
CC(C)(C)NC(=O)[C@H]1N(C(=O)[C@@H](O)[C@H](Cc2ccccc2)NC(=O)c2ccc(Cl)cc2)CSC1(C)C	28 µg/mL (≈ 52.6 µM)	–	–	–
CC(C)(C)NC(=O)[C@H]1N(C(=O)[C@@H](O)[C@H](Cc2ccccc2)NC(=O)c2ccccc2)CSC1(C)C	120 µg/mL (≈ 241 µM)	–	–	–
CC(C)(C)NC(=O)[C@H]1N(C(=O)[C@@H](O)[C@H](Cc2ccccc2)NC(=O)c2ccc([N+](=O)[O-])cc2)CSC1(C)C	57 µg/mL (≈ 105 µM)	–	–	–
CC(C)(C)NC(=O)[C@H]1N(C(=O)[C@@H](OC(=O)c2ccc([N+](=O)[O-])cc2)[C@@H](N)Cc2ccccc2)CSC1(C)C.Cl	13000 µg/mL	228	2.6 min	–
Cc1cccc(C)c1OCC(=O)O[C@H](C(=O)N1CSC(C)(C)[C@H]1C(=O)NC(C)(C)C)[C@@H](N)Cc1ccccc1.Cl	13000 µg/mL	8666	< 1 min	–
CC(C)(C)NC(=O)[C@H]1N(C(=O)[C@@H](OC(=O)OCc2ccccc2)[C@@H](N)Cc2ccccc2)CSC1(C)C.Cl	21000 µg/mL	449	< 1 min	3.2
CC(C)(C)NC(=O)[C@H]1N(C(=O)[C@@H](OC(=O)c2ccc(Cl)cc2)[C@@H](N)Cc2ccccc2)CSC1(C)C.Cl	4300 µg/mL	154	16 min	–
CC(C)(C)NC(=O)[C@H]1N(C(=O)[C@@H](OC(=O)Cc2ccccc2)[C@@H](N)Cc2ccccc2)CSC1(C)C.Cl	33000 µg/mL	340	2.2 min	4.31
CC(C)(C)NC(=O)[C@H]1N(C(=O)[C@@H](OC(=O)c2ccccc2)[C@@H](N)Cc2ccccc2)CSC1(C)C.Cl	15000 µg/mL	125	30 min	4.2
Cc1ccc(C(=O)O[C@H](C(=O)N2CSC(C)(C)[C@H]2C(=O)NC(C)(C)C)[C@@H](N)Cc2ccccc2)cc1.Cl	6200 µg/mL	155	44 min	–
COc1ccc(C(=O)O[C@H](C(=O)N2CSC(C)(C)[C@H]2C(=O)NC(C)(C)C)[C@@H](N)Cc2ccccc2)cc1.Cl	16000 µg/mL	211	67 min	–
CC(C)(C)NC(=O)[C@H]1N(C(=O)[C@@H](O)[C@H](Cc2ccccc2)NC(=O)Cc2ccccc2)CSC1(C)C	97 µg/mL (≈ 190 µM)	–	–	–
COc1ccc(C(=O)N[C@@H](Cc2ccccc2)[C@H](O)C(=O)N2CSC(C)(C)[C@H]2C(=O)NC(C)(C)C)cc1	76 µg/mL (≈ 144 µM)	–	–	–
